Reference: ChEMBL document CHEMBL5036318, “Synthesis and Biological Evaluation of Phosphoester and Phosphorothioate Prodrugs of STING Agonist 3',3'-c-Di(2'F,2'dAMP)” (J Med Chem, 2021)

Tests used:
[1] = Drug uptake in human THP1-Dual cells at 1.25 uM incubated for 2 hrs by HPLC-LS analysis; assay type: ADME, cell-based
[2] = Drug metabolism in human THP1-Dual cells assessed as 3',3'-c-di(2'F,2'dAMP) metabolite formation measured after 2 hrs by HPLC analysis; assay type: ADME, cell-based
[3] = Drug metabolism in human THP1-Dual cells assessed as 3',3'-c-di(2'F,2'dAMP) metabolite formation measured after 24 hrs by HPLC analysis; assay type: ADME, cell-based
[4] = Drug uptake in human THP1-Dual cells at 125 uM incubated for 24 hrs by HPLC-LS analysis; assay type: ADME, cell-based
[5] = Drug uptake in human THP1-Dual cells at extra cellular concentration incubated for 24 hrs by HPLC-LS analysis; assay type: ADME, cell-based
[6] = target: T1, Stimulator of interferon genes protein (Homo sapiens, UniProt Q86WV6); assay: Activation of wild-type human STING expressed in digitonin treated HEK293T cells co-expressing IRF3-activated ISRE assessed as IRF3 reporter activation by luciferase reporter gene assay; assay type: cell-based
[7] = target: Stimulator of interferon genes protein (Homo sapiens, UniProt Q86WV6, G230A/R293Q/R71H); assay: Activation of human STING HAQ mutant expressed in digitonin treated HEK293T cells co-expressing IRF3-activated ISRE assessed as IRF3 reporter activation by luciferase reporter gene assay; assay type: cell-based
[8] = Activation of human STING Q mutant expressed in digitonin treated HEK293T cells co-expressing IRF3-activated ISRE assessed as IRF3 reporter activation by luciferase reporter gene assay; assay type: cell-based; details: HEK-293T
[9] = target: T1, Stimulator of interferon genes protein; assay: Activation of wild-type human STING expressed in HEK293T cells co-expressing IRF3-activated ISRE assessed as IRF3 reporter activation measured after 30 mins by luciferase reporter gene assay; assay type: cell-based
[10] = target: T1, Stimulator of interferon genes protein; assay: Activation of wild-type human STING expressed in digitonin treated human THP1-Dual cells co-expressing IRF3-activated ISRE assessed as IRF3 reporter activation measured after 30 mins by luciferase reporter gene assay; assay type: cell-based
[11] = target: T1, Stimulator of interferon genes protein; assay: Activation of wild-type human STING expressed in human THP1-Dual cells co-expressing IRF3-activated ISRE assessed as IRF3 reporter activation measured after 7 hrs by luciferase reporter gene assay; assay type: cell-based
[12] = Induction of INF-alpha production in healthy human PBMC incubated for 16 hrs; assay type: functional, tissue-based
[13] = Induction of INF-gamma production in healthy human PBMC incubated for 16 hrs; assay type: functional, tissue-based
[14] = Induction of TNF-alpha production in healthy human PBMC incubated for 16 hrs; assay type: functional, tissue-based
[15] = target: T1, Stimulator of interferon genes protein; assay: Binding affinity to wild type STING (unknown origin) assessed as change in melting temperature by differential scanning fluorimetry; details: filed as activator
[16] = target: T1, Stimulator of interferon genes protein; assay: Binding affinity to human STING expressed in […] cells assessed as change in melting temperature by Cell-based assay; details: HEK293T, filed as activator
cells = details: Homo sapiens, HEK-293T
Description: Activation of human STING REF mutant expressed in digitonin treated HEK293T cells co-expressing IRF3-activated ISRE assessed as IRF3 reporter activation by luciferase reporter gene assay

[17] = target: Stimulator of interferon genes protein (Homo sapiens, UniProt Q86WV6, G230A/R293Q); assay: Activation of human STING QA mutant expressed in digitonin treated HEK293T cells co-expressing IRF3-activated ISRE assessed as IRF3 reporter activation by luciferase reporter gene assay; assay type: cell-based
[18] = target: T1, Stimulator of interferon genes protein; assay: Activation of wild-type human STING expressed in HEK293T cells co-expressing IRF3-activated ISRE assessed as IRF3 reporter activation measured after 7 hrs by luciferase reporter gene assay; assay type: cell-based
[19] = Potency index, ratio of test compound EC50 to prodrug EC50 for induction of INF-alpha production in healthy human PBMC incubated for 16 hrs; assay type: functional
[20] = Potency index, ratio of test compound EC50 to prodrug EC50 for induction of INF-gamma production in healthy human PBMC incubated for 16 hrs; assay type: functional
[21] = Stability in human plasma assessed as half life; assay type: ADME, cell-free
[22] = Stability in mouse plasma assessed as half life; assay type: ADME, cell-free
[23] = Potency index, ratio of test compound EC50 to prodrug EC50 for induction of TNF-alpha production in healthy human PBMC incubated for 16 hrs; assay type: functional

T1 sequence (Q86WV6 whole entry): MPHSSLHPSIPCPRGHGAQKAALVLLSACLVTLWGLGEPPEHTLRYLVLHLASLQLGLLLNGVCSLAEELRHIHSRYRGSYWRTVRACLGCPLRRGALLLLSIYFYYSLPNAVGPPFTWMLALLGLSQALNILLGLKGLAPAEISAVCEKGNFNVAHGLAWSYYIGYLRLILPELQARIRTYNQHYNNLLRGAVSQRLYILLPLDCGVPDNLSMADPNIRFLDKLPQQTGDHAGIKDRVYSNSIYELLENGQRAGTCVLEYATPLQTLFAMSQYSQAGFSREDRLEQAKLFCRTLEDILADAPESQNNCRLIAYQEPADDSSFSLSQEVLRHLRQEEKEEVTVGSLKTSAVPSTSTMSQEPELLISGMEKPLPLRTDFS
Chain of Stimulator of interferon genes protein (Homo sapiens, UniProt Q86WV6, G230A/R293Q/R71H) (Q86WV6 whole entry R71H/G230A/R293Q): as the sequence (Q86WV6 whole entry) above, with R71H, G230A, R293Q counted along it
Chain of Stimulator of interferon genes protein (Homo sapiens, UniProt Q86WV6, G230A/R293Q) (Q86WV6 whole entry G230A/R293Q): as the sequence (Q86WV6 whole entry) above, with G230A, R293Q counted along it

EC50 [6] | EC50 [7] | EC50 [8] | EC50 [9] | EC50 [10] | EC50 [11] | ΔTm [15] | ΔTm [16] | EC50 (cells) | EC50 [17] | Compound | EC50 [12] | EC50 [13] | EC50 [14] | further results
0.02 µM | 0.05 µM | 0.21 µM | 0.52 µM | 3.03 µM | 0.31 µM | 11.2 °C | 11.2 °C | 0.36 µM |  | Nc1ncnc2c1ncn2[C@@H]1O[C@@H]2CO[P@@](=O)(S)O[C@H]3[C@@H](F)[C@H](n4cnc5c(N)ncnc54)O[C@@H]3CO[P@](=O)(S)O[C@H]2[C@H]1F | 17.7 µM | 11.2 µM | 7.29 µM | 
0.007 µM | 0.13 µM | 0.45 µM |  |  |  | 8.9 °C | 8.9 °C | 0.92 µM | 0.07 µM | Nc1ncnc2c1ncn2[C@@H]1O[C@@H]2CO[P@](=O)(S)O[C@H]3[C@@H](F)[C@H](n4cnc5c(N)ncnc54)O[C@@H]3COP(=O)(O)O[C@H]2[C@H]1F |  |  |  | 
0.17 µM | 0.88 µM | 4.07 µM | 2.28 µM | 12.1 µM | 7.79 µM | 5.5 °C |  | 8.7 µM | 0.26 µM | Nc1ncnc2c1ncn2[C@@H]1O[C@@H]2CO[P@](=O)(S)O[C@H]3[C@@H](F)[C@H](n4cnc5c(N)ncnc54)O[C@@H]3CO[P@](=O)(S)O[C@H]2[C@H]1F | 29.6 µM | 9.87 µM | 26.8 µM | 
0.04 µM | 0.08 µM | 0.08 µM | 7.02 µM | 3.56 µM | 0.36 µM | 15.9 °C |  | 0.13 µM | 0.04 µM | Nc1ncnc2c1ncn2[C@@H]1O[C@@H]2CO[P@@](=O)(S)O[C@H]3[C@@H](F)[C@H](n4cnc5c(N)ncnc54)O[C@@H]3CO[P@@](=O)(S)O[C@H]2[C@H]1F | 38.7 µM | 6.08 µM | 9.37 µM | 
0.04 µM | 0.1 µM | 0.1 µM |  |  |  | 14.7 °C | 14.7 °C |  | 0.04 µM | Nc1ncnc2c1ncn2[C@@H]1O[C@@H]2CO[P@@](=O)(S)O[C@H]3[C@@H](F)[C@H](n4cnc5c(N)ncnc54)O[C@@H]3COP(=O)(O)O[C@H]2[C@H]1F |  |  |  | 

The next lines start with the compound.

Compound | EC50 [6] | EC50 [7] | EC50 [8] | EC50 [9] | EC50 [10] | EC50 [11] | ΔTm [15] | ΔTm [16] | EC50 (cells) | EC50 [17] | EC50 [12] | EC50 [13] | EC50 [14] | further results
[3H]c1nc2c(N)ncnc2n1[C@@H]1O[C@@H]2CO[P@@](=O)(OCOC(=O)C(C)(C)C)O[C@H]3[C@@H](F)[C@H](n4c([3H])nc5c(N)ncnc54)O[C@@H]3CO[P@@](=O)(OCOC(=O)C(C)(C)C)O[C@H]2[C@H]1F |  |  |  |  |  |  |  |  |  |  |  |  |  | Drug uptake [1]: Active; Drug metabolism [2]: Metabolite_Detected; Drug metabolism [3]: Metabolite_Notdetected
[3H]c1nc2c(N)ncnc2n1[C@@H]1O[C@@H]2COP(=O)(O)O[C@H]3[C@@H](F)[C@H](n4c([3H])nc5c(N)ncnc54)O[C@@H]3COP(=O)(O)O[C@H]2[C@H]1F |  |  |  |  |  |  |  |  |  |  |  |  |  | Drug uptake [4]: Not Active; Drug uptake [5]: Not Active
[3H]c1nc2c(N)ncnc2n1[C@@H]1O[C@@H]2CO[P@@](=O)(OCOC(=O)C(C)(C)C)O[C@H]3[C@@H](F)[C@H](n4c([3H])nc5c(N)ncnc54)O[C@@H]3CO[P@](=O)(OCOC(=O)C(C)(C)C)O[C@H]2[C@H]1F |  |  |  |  |  |  |  |  |  |  |  |  |  | Drug uptake [1]: Active; Drug metabolism [2]: Metabolite_Detected; Drug metabolism [3]: Metabolite_Notdetected
CC(C)(C)C(=O)OCO[P@@]1(=O)OC[C@H]2O[C@@H](n3cnc4c(N)ncnc43)[C@H](F)[C@@H]2O[P@](=O)(OCOC(=O)C(C)(C)C)OC[C@H]2O[C@@H](n3cnc4c(N)ncnc43)[C@H](F)[C@@H]2O1 |  |  |  | 0.07 µM | 0.18 µM | 0.05 µM |  |  |  |  | 0.44 µM | 0.07 µM | 0.24 µM | EC50 [18]: 0.04 µM; Ratio EC50 [19]: 115; Ratio EC50 [20]: 110; half-life [21]: 1 h; half-life [22]: < 2 min
CC(C)(C)C(=O)OCO[P@]1(=O)OC[C@H]2O[C@@H](n3cnc4c(N)ncnc43)[C@H](F)[C@@H]2O[P@](=O)(OCOC(=O)C(C)(C)C)OC[C@H]2O[C@@H](n3cnc4c(N)ncnc43)[C@H](F)[C@@H]2O1 |  |  |  | 0.03 µM | 0.11 µM | 0.03 µM |  |  |  |  | 0.22 µM | 0.06 µM | 0.11 µM | EC50 [18]: 0.02 µM; Ratio EC50 [19]: 234; Ratio EC50 [20]: 148; Ratio EC50 [23]: 279; half-life [21]: 1.17 h; half-life [22]: < 2 min
